Like-named read-outs stand apart in the source and are kept apart here.
Legend:
[1] = molecular target: T1, ALK (Homo sapiens, UniProt Q9UM73); experiment: ALK Kinase Assay (ELISA/TRF, PLC-γ substrate); assay type: biochemical; details: read-out: ALK Potency
T1 construct: host or cells: baculovirus expression system
Summary of the method: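 Time-resolved fluorescence ELISA using Eu-N1 PT66 antibody to detect phosphorylated PLC-γ (coated at 10 μg/mL). Enzyme at 30 ng/ml ALK; 15 min incubation, 37° C.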

[2] = molecular target: T2, JAK2 (Homo sapiens, UniProt O60674); experiment: Recombinant Human JAK2 Kinase Assay (TRF); assay type: biochemical; details: read-out: JAK2 Potency
T2 construct: host or cells: baculovirus expression system
T2 sequence (O60674 whole entry): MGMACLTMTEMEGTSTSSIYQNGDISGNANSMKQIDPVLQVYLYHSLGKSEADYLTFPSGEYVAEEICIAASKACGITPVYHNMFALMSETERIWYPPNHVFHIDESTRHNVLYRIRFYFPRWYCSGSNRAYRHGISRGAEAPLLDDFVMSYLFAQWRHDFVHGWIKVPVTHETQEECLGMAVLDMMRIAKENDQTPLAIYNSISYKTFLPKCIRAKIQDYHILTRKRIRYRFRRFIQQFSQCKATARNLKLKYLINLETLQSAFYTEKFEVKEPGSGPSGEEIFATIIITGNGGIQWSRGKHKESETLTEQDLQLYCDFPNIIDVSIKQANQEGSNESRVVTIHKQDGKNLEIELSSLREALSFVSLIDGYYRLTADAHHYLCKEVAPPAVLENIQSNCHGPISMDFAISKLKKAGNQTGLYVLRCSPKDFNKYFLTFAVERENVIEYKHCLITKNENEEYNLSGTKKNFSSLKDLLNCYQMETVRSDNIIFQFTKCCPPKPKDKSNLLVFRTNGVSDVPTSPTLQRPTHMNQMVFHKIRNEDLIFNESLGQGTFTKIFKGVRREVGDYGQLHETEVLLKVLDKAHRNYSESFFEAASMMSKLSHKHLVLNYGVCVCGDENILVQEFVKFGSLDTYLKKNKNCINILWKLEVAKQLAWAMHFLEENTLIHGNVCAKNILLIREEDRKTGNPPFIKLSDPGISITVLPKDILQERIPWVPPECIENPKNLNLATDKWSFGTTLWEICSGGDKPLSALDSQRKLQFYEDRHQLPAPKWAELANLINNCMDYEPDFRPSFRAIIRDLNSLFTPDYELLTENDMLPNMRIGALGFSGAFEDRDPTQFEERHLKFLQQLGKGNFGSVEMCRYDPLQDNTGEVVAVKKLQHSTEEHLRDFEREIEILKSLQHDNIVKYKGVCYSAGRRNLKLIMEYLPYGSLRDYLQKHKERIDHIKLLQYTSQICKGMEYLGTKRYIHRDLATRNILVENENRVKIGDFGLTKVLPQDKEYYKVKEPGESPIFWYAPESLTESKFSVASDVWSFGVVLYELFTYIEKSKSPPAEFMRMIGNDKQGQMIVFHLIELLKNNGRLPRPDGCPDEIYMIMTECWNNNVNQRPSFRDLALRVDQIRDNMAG
Summary of the method: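 Europium-labelled PY100 antibody reported tyrosine phosphorylation of a Neutravidin-captured biotinyl 15-mer peptide by JAK2 (baculovirus-expressed, 15 ng/ml). Conditions: 20 mM HEPES pH 7.2, 0.2 μM ATP, 1 mM MnCl2, 0.1% BSA, DMSO 2.5% final, 20 min at room temperature.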

[3] = ALK kinase inhibition, 1 μM ATP
[4] = JAK2 kinase inhibition, 0.2 μM ATP

T1 sequence (Q9UM73 19-1620): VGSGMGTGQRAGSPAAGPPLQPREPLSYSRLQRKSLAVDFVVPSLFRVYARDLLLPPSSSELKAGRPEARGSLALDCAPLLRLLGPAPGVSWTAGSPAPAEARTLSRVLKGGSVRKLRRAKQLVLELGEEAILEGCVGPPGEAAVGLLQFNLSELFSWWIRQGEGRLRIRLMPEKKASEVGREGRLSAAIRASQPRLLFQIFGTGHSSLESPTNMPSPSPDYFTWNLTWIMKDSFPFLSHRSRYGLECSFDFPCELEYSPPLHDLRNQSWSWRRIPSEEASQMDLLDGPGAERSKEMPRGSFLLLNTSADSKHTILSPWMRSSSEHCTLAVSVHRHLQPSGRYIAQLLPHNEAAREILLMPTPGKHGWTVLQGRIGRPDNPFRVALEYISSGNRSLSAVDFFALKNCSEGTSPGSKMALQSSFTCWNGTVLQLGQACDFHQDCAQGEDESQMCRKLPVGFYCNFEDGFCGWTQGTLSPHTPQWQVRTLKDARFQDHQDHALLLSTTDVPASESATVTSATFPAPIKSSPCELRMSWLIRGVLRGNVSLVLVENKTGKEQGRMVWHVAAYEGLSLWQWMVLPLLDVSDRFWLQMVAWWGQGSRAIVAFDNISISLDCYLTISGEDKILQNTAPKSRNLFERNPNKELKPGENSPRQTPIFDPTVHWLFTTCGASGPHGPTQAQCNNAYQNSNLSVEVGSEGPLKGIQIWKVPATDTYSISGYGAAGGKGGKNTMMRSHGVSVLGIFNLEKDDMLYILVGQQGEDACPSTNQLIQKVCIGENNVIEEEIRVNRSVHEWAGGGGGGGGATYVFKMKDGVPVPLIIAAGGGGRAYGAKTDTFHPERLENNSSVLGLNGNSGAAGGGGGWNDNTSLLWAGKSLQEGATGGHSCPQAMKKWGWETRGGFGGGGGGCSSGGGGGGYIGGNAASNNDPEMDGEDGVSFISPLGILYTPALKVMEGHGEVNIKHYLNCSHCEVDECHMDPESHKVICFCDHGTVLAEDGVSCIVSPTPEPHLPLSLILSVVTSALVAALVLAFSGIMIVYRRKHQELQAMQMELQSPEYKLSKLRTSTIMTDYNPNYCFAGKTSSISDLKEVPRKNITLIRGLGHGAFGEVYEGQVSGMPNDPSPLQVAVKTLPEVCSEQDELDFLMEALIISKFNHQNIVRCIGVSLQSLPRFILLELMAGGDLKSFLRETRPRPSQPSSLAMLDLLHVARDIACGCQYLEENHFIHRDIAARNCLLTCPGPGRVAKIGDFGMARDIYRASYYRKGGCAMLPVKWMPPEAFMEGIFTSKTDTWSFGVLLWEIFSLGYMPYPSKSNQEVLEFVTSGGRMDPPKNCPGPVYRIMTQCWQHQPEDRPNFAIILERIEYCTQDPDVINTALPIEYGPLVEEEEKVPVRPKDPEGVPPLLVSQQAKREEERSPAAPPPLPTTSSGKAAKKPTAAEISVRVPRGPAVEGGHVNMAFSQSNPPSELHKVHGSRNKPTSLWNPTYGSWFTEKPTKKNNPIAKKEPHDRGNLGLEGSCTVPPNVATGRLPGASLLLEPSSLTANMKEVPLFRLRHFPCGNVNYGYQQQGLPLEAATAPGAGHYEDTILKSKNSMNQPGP

N#CCCc1cccc(-c2ccc3cnc(Nc4ccc(N5CCOCC5)cc4)nn23)c1 [Example 1145, 3-{3-[2-(4-Morpholin-4-yl-phenylamino)-pyrrolo[2,1-f][1,2,4]triazin-7-yl]-phenyl}-propionitrile]
IC50 [1, 3]: 100 to 1000 nM | IC50 [2, 4]: < 100 nM

COc1cc(C2CCN(C)CC2C)ccc1Nc1ncc2ccc(-c3ccccc3OC)n2n1 (racemic) [Example 858, (±)-[4-(1,3-Dimethyl-piperidin-4-yl)-2-methoxy-phenyl]-[7-(2-methoxy-phenyl)-pyrrolo[2,1-f][1,2,4]triazin-2-yl]-amine]
IC50 [1, 3]: < 100 nM | IC50 [2, 4]: 100 to 1000 nM

CC(C)(C)NS(=O)(=O)c1cccc(-c2ccc3cnc(Nc4ccc(C5CNCCN5)cc4)nn23)c1 (centres unmarked) [Example 1528, N-tert-Butyl-3-[2-(4-piperazin-2-yl-phenylamino)-pyrrolo[2,1-f][1,2,4]triazin-7-yl]-benzenesulfonamide]
IC50 ([1]; ALK Kinase Inhibition): 100 to 1000 nM | IC50 ([2]; JAK2 Kinase Inhibition): < 100 nM

COc1cc(C(=O)N2CCN(C)CC2)ccc1Nc1ncc2ccc(-c3ccccc3OC)n2n1 [Example 489, {3-Methoxy-4-[7-(2-methoxy-phenyl)-pyrrolo[2,1-f][1,2,4]triazin-2-ylamino]-phenyl}-(4-methyl-piperazin-1-yl)-methanone]
IC50 [1, 3]: 100 to 1000 nM | IC50 [2, 4]: 100 to 1000 nM

CC(C)(C)NS(=O)(=O)c1cccc(-c2ccc3cnc(Nc4ccc(CN5CCS(=O)(=O)CC5)cc4)nn23)c1 [Example 1057, N-tert-Butyl-3-{2-[4-(1,1-dioxo-1 $1(6)-thiomorpholin-4-ylmethyl)-phenylamino]-pyrrolo[2,1-f][1,2,4]triazin-7-yl}-benzenesulfonamide]
IC50 [1, 3]: 100 to 1000 nM | IC50 [2, 4]: < 100 nM

COc1ccccc1-c1ccc2cnc(Nc3ccc(N4CCN(C)CC4)cc3Cl)nn12 [Example 508, [2-Chloro-4-(4-methyl-piperazin-1-yl)-phenyl]-[7-(2-methoxy-phenyl)-pyrrolo[2,1-f][1,2,4]triazin-2-yl]-amine]
IC50 [1, 3]: < 100 nM | IC50 [2, 4]: < 100 nM

CN1CCN(c2ccc(Nc3ncc4ccc(-c5cnn(C)c5)n4n3)cc2F)CC1 [Example 1215, [3-Fluoro-4-(4-methyl-piperazin-1-yl)-phenyl]-[7-(1-methyl-1H-pyrazol-4-yl)-pyrrolo[2,1-f][1,2,4]triazin-2-yl]-amine]
IC50 [1, 3]: 100 to 1000 nM | IC50 [2, 4]: < 100 nM

COc1ccc(Nc2ncc3ccc(-c4cc(Cl)ccc4OC)n3n2)cc1 [Example 153, [7-(5-Chloro-2-methoxy-phenyl)-pyrrolo[2,1-f][1,2,4]triazin-2-yl]-(4-methoxy-phenyl)-amine]
IC50 ([1]; ALK Kinase Inhibition): > 10000 nM | IC50 ([2]; JAK2 Kinase Inhibition): < 100 nM

COc1ccccc1-c1ccc2cnc(Nc3ccc(N4CCCC4)cc3)nn12 [Example 169, [7-(2-Methoxy-phenyl)-pyrrolo[2,1-f][1,2,4]triazin-2-yl]-(4-pyrrolidin-1-yl-phenyl)-amine]
IC50 ([1]; ALK Kinase Inhibition): 100 to 1000 nM | IC50 ([2]; JAK2 Kinase Inhibition): < 100 nM

c1ccc(-c2ccc3cnc(Nc4ccc(N5CCOCC5)nc4)nn23)cc1 [Example 46, (6-Morpholin-4-yl-pyridin-3-yl)-(7-phenyl-pyrrolo[2,1-f][1,2,4]triazin-2-yl)-amine]
IC50 ([1]; ALK Kinase Inhibition): 1000 to 10000 nM | IC50 ([2]; JAK2 Kinase Inhibition): < 100 nM

COc1ccc(Cl)cc1-c1ccc2cnc(Nc3ccc4[nH]ccc4c3)nn12 [Example 171, [7-(5-Chloro-2-methoxy-phenyl)-pyrrolo[2,1-f][1,2,4]triazin-2-yl]-(1H-indol-5-yl)-amine]
IC50 ([1]; ALK Kinase Inhibition): 100 to 1000 nM | IC50 ([2]; JAK2 Kinase Inhibition): < 100 nM

2-Methyl-propane-2-sulfonic acid (3-{2-[4-(4-diethylamino-piperidin-1-yl)-phenylamino]-pyrrolo[2,1-f][1,2,4]triazin-7-yl}-phenyl)-amide [Example 1217]
IC50 [1, 3]: < 100 nM | IC50 [2, 4]: < 100 nM

COc1cc(CN2CCNCC2)ccc1Nc1ncc2ccc(-c3ccccc3N(C)S(C)(=O)=O)n2n1 [Example 1223, N-{2-[2-(2-Methoxy-4-piperazin-1-ylmethyl-phenylamino)-pyrrolo[2,1-f][1,2,4]triazin-7-yl]-phenyl}-N-methyl-methanesulfonamide]
IC50 [1, 3]: < 100 nM | IC50 [2, 4]: 1000 to 10000 nM

COc1ccc(C2CCN(C)CC2)cc1Nc1ncc2ccc(-c3ccccc3N(C)S(C)(=O)=O)n2n1 [Example 774, N-(2-{2-[2-Methoxy-5-(1-methyl-piperidin-4-yl)-phenylamino]-pyrrolo-[2,1-f][1,2,4]triazin-7-yl}-phenyl)-N-methyl-methanesulfonamide]
IC50 [1, 3]: < 100 nM | IC50 [2, 4]: 100 to 1000 nM

COc1cc(N2CCN(C)CC2)ccc1Nc1ncc2ccc(-c3ccccc3N(C)S(C)(=O)=O)n2n1 [Example 1457, N-(2-{2-[2-Methoxy-4-(4-methyl-piperazin-1-yl)-phenylamino]-pyrrolo[2,1-f][1,2,4]triazin-7-yl}-phenyl)-N-methyl-methanesulfonamide]
IC50 ([1]; ALK Kinase Inhibition): < 100 nM | IC50 ([2]; JAK2 Kinase Inhibition): 100 to 1000 nM

CC(C)(C)NS(=O)(=O)c1cccc(-c2ccc3cnc(Nc4ccc5[nH]c(=O)[nH]c5c4)nn23)c1 [Example 1298, N-tert-Butyl-3-[2-(2-oxo-2,3-dihydro-1H-benzimidazol-5-ylamino)-pyrrolo[2,1-f][1,2,4]triazin-7-yl]-benzenesulfonamide]
IC50 [1, 3]: 100 to 1000 nM | IC50 [2, 4]: < 100 nM

CN(c1ncccc1-c1ccc2cnc(Nc3ccc(C4CCN(CC(N)=O)CC4)cc3)nn12)S(C)(=O)=O [Example 1258, 2-[4-(4-{7-[2-(Methanesulfonyl-methyl-amino)-pyridin-3-yl]-pyrrolo[2,1-f][1,2,4]triazin-2-ylamino}-phenyl)-piperidin-1-yl]-acetamide]
IC50 [1, 3]: < 100 nM | IC50 [2, 4]: < 100 nM

COc1ccc(-c2ccc3cnc(Nc4ccc(N5CCOCC5)cc4)nn23)cn1 [Example 1105, [7-(6-Methoxy-pyridin-3-yl)-pyrrolo[2,1-f][1,2,4]triazin-2-yl]-(4-morpholin-4-yl-phenyl)-amine]
IC50 [1, 3]: 1000 to 10000 nM | IC50 [2, 4]: < 100 nM

COc1ccc(-c2ccc3cnc(Nc4ccc(C5CCN(CC(N)=O)CC5)c(OC)c4)nn23)cn1 [Example 911, 2-(4-{2-Methoxy-4-[7-(6-methoxy-pyridin-3-yl)-pyrrolo[2,1-f][1,2,4]triazin-2-ylamino]-phenyl}-piperidin-1-yl)-acetamide]
IC50 [1, 3]: < 100 nM | IC50 [2, 4]: < 100 nM

COCCN1CCc2cc(Nc3ncc4ccc(-c5ccccc5OC)n4n3)c(OC)cc2CC1 [Example 48, [8-Methoxy-3-(2-methoxy-ethyl)-2,3,4,5-tetrahydro-1H-benzo[d]azepin-7-yl]-[7-(2-methoxy-phenyl)-pyrrolo[2,1-f][1,2,4]triazin-2-yl]-amine]
IC50 ([1]; ALK Kinase Inhibition): < 100 nM | IC50 ([2]; JAK2 Kinase Inhibition): 100 to 1000 nM

COc1cc(N2CCCN(C3CCN(C)CC3)CC2)ccc1Nc1ncc2ccc(-c3ccccc3OC)n2n1 [Example 789, {2-Methoxy-4-[4-(1-methyl-piperidin-4-yl)-[1,4]diazepan-1-yl]-phenyl}-[7-(2-methoxy-phenyl)-pyrrolo[2,1-f][1,2,4]triazin-2-yl]-amine]
IC50 [1, 3]: < 100 nM | IC50 [2, 4]: 100 to 1000 nM

COc1ccccc1-c1ccc2cnc(Nc3ccc4c(c3)CCC(N3CCOCC3)CC4)nn12 (centres unmarked) [Example 614, [7-(2-methoxy-phenyl)-pyrrolo[2,1-f][1,2,4]triazin-2-yl]-(7-morpholin-4-yl-6,7,8,9-tetrahydro-5H-benzocyclohepten-2-yl)amine]
IC50 [1, 3]: < 100 nM | IC50 [2, 4]: < 100 nM

Source: patent US8471005B2 (Cephalon, Inc., priority 2008, dated 2013)
